Measurements from patent publication US20210353579A1, “HIGH PENETRATION COMPOSITIONS AND USES THEREOF” (Techfields Pharma Co., Ltd., priority 2006, published 2021).
In brackets after ≈: the same amount, converted by molar mass.

Test system: not listed separately
Assay: Plasma levels after transdermal administration to hairless mice
Type: in vivo
Conditions: parent compound administered (time when taken orally)
Procedure: Tested compounds (20% solution or suspension in 1 mL isopropanol) are administered transdermally to the skin of intact hairless mice. The plasma levels of the parent compounds are determined by HPLC.
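Throughout, for LD50: acute toxicity in rats expressed as LD50, determined for both prodrugs and their parent compounds.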

With `CC(C(=O)O)c1ccc2c(c1)Cc1cccnc1O2` (stereo not drawn) [Pranoprofen, pranoprofen] as the molecule, how does the “t, time to peak plasma level after parent compound” value (shortened to “t, time to peak plasma level”) read?
Its value is 2 to 4 h.

With `COc1ccc2c(c1)c(CC(=O)O)c(C)n2C(=O)c1ccc(Cl)cc1` [Indomethacin, indomethacin] as the molecule, how does the “t, time to peak plasma level” value read?
Its value is 1 to 2 h.

For `CC(C(=O)O)c1ccc2c(c1)[nH]c1ccc(Cl)cc12` (stereo not drawn) [Carprofen, carprofen], which “t, time to peak plasma level” value is on record?
Its value is 2 to 4 h.

For `Cc1cccc(Nc2ccccc2C(=O)O)c1C` [Mefenamic acid, mefenamic acid], which “t, time to peak plasma level” value is on record?
Its value is 2 to 4 h.

Which “t, time to peak plasma level” value does the source give for `O=C(O)c1cccnc1Nc1cccc(C(F)(F)F)c1` [Niflumic acid, niflumic acid] here?
The value was 2 to 4 h.

With `CC(C(=O)O)c1ccc(N2Cc3ccccc3C2=O)cc1` (stereo not drawn) [Indoprofen, indoprofen] as the molecule, how does the “t, time to peak plasma level” value read?
Its value is 2 to 4 h.

Which “t, time to peak plasma level” value does the source give for `CC(C(=O)O)c1ccc2oc(-c3ccc(Cl)cc3)nc2c1` (stereo not drawn) [Benoxaprofen, benoxaprofen] here?
The value was 2 to 4 h.

With `CN1C(C(=O)Nc2ccccn2)=C(O)c2ccccc2S1(=O)=O` [Piroxicam, piroxicam] as the molecule, how does the “t, time to peak plasma level” value read?
The value was 2 to 4 h.

With `O=C(O)C1CCc2cc(C3CCCCC3)c(Cl)cc21` (stereo not drawn) [Clidanac, clidanac] as the molecule, how does the “t, time to peak plasma level” value read?
The value was 2 to 4 h.

For `CC(C)Cc1ccc(C(C)C(=O)O)cc1` (stereo not drawn) [Ibuprofen, 2-(ρ-isobutylphenyl) propionic acid, reference compound], which “t, time to peak plasma level” value is on record?
Its value is 1 to 2 h.

For `Cc1ccc(C(=O)c2ccc(CC(=O)O)n2C)cc1` [Tolmetin, tolmetin], which “t, time to peak plasma level” value is on record?
The value was 1 to 2 h.

Same assay, conditions: parent compound administered, hairless mice

For `CC(C(=O)O)c1ccc2c(c1)Cc1cccnc1O2` (stereo not drawn) [Pranoprofen, pranoprofen], which “Peak plasma concentration after parent compound” value (from here on “Peak plasma concentration”) is on record?
The value was 10 mg/L.

For `COc1ccc2c(c1)c(CC(=O)O)c(C)n2C(=O)c1ccc(Cl)cc1` [Indomethacin, indomethacin], which “Peak plasma concentration” value is on record?
The value was 0.1 mg/L.

With `CC(C(=O)O)c1ccc2c(c1)[nH]c1ccc(Cl)cc12` (stereo not drawn) [Carprofen, carprofen] as the molecule, how does the “Peak plasma concentration” value read?
The value was 10 mg/L.

For `Cc1cccc(Nc2ccccc2C(=O)O)c1C` [Mefenamic acid, mefenamic acid], which “Peak plasma concentration” value is on record?
The value was 0.1 mg/L.

With `O=C(O)c1cccnc1Nc1cccc(C(F)(F)F)c1` [Niflumic acid, niflumic acid] as the molecule, how does the “Peak plasma concentration” value read?
The value was 0.1 mg/L.

With `CC(C(=O)O)c1ccc(N2Cc3ccccc3C2=O)cc1` (stereo not drawn) [Indoprofen, indoprofen] as the molecule, how does the “Peak plasma concentration” value read?
The value was 10 mg/L.

Which “Peak plasma concentration” value does the source give for `CC(C(=O)O)c1ccc2oc(-c3ccc(Cl)cc3)nc2c1` (stereo not drawn) [Benoxaprofen, benoxaprofen] here?
Its value is 10 mg/L.

For `CN1C(C(=O)Nc2ccccn2)=C(O)c2ccccc2S1(=O)=O` [Piroxicam, piroxicam], which “Peak plasma concentration” value is on record?
The value was 0.1 mg/L.

For `O=C(O)C1CCc2cc(C3CCCCC3)c(Cl)cc21` (stereo not drawn) [Clidanac, clidanac], which “Peak plasma concentration” value is on record?
Its value is 10 mg/L.

Which “Peak plasma concentration” value does the source give for `CC(C)Cc1ccc(C(C)C(=O)O)cc1` (stereo not drawn) [Ibuprofen, 2-(ρ-isobutylphenyl) propionic acid, reference compound] here?
The value was 2 mg/L.

For `Cc1ccc(C(=O)c2ccc(CC(=O)O)n2C)cc1` [Tolmetin, tolmetin], which “Peak plasma concentration” value is on record?
Its value is 0.1 mg/L.

Test system: mice
Assay: Analgesic activity, acetic acid writhing
Type: in vivo
Conditions: 50 mg/kg orally, 30 min before acetic acid
Procedure: The prodrug compounds are administered either transdermally or orally. The parent compounds are administered orally. The number of writhing that occurred when mice are administered the acetic acid solution are counted, and the rate of inhibition based on the control group which was not pretreated with any test compounds is calculated. […] The A group is the control group.

Which “No. of Writhing” value does the source give for `CC(C)Cc1ccc(C(C)C(=O)O)cc1` (stereo not drawn) [Ibuprofen, 2-(ρ-isobutylphenyl) propionic acid, reference compound] here?
Its value is 17.2.

Same assay, conditions: 100 mg/kg orally, 30 min before acetic acid

For `CC(C)Cc1ccc(C(C)C(=O)O)cc1` (stereo not drawn) [Ibuprofen, 2-(ρ-isobutylphenyl) propionic acid, reference compound], which “No. of Writhing” value is on record?
The value was 13.1.

Same assay, conditions: Mus musculus, po; 50 mg/kg orally, 30 min before acetic acid; read-out: % (rate of writhing inhibition)

With `CC(C)Cc1ccc(C(C)C(=O)O)cc1` (stereo not drawn) [Ibuprofen, 2-(ρ-isobutylphenyl) propionic acid, reference compound] as the molecule, how does the inhibition at 50 mg/kg read?
Its inhibition at 50 mg/kg is 50%.

Same assay, conditions: Mus musculus, po; 100 mg/kg orally, 30 min before acetic acid; read-out: % (rate of writhing inhibition)

With `CC(C)Cc1ccc(C(C)C(=O)O)cc1` (stereo not drawn) [Ibuprofen, 2-(ρ-isobutylphenyl) propionic acid, reference compound] as the molecule, how does the inhibition at 100 mg/kg read?
The inhibition at 100 mg/kg was 62%.

Test system: rats
Assay: Antipyretic activity, E. coli suspension as pyrogen
Type: in vivo
Conditions: 100 mg/kg orally; in °C (unit assumed)
Procedure: Rats are administered with sterilized E. coli suspension as a pyrogen. Each group of rats are administered with a prodrug compounds or parent compounds at a dosage specified below. The prodrug compounds are administered either orally or transdermally. The parent compounds are administered orally.

Which “body temperature, t = 0 min” value does the source give for `CC(C)Cc1ccc(C(C)C(=O)O)cc1` (stereo not drawn) [Ibuprofen, 2-(ρ-isobutylphenyl) propionic acid, reference compound] here?
Its value is 37.25 ± 0.06.

And the “body temperature, t = 90 min” value?
The value was 36.83 ± 0.05.

What about the “body temperature, t = 180 min” value of the same molecule?
The value was 36.80 ± 0.08.

What about the “body temperature, t = 270 min” value of the same molecule?
Its value is 36.78 ± 0.07.

Same assay, conditions: 150 mg/kg orally; in °C (unit assumed)

Which “body temperature, t = 0 min” value does the source give for `CC(C)Cc1ccc(C(C)C(=O)O)cc1` (stereo not drawn) [Ibuprofen, 2-(ρ-isobutylphenyl) propionic acid, reference compound] here?
Its value is 37.35 ± 0.09.

And the “body temperature, t = 90 min” value?
The value was 36.59 ± 0.07.

What about the “body temperature, t = 180 min” value of the same molecule?
Its value is 36.53 ± 0.06.

And the “body temperature, t = 270 min” value?
The value was 36.55 ± 0.05.

Test system: human skin tissue
Assay: not given
Conditions: human, 20 %, pH 7.4

For `CC(C(=O)O)c1ccc2c(c1)Cc1cccnc1O2` (stereo not drawn) [Pranoprofen, pranoprofen], which “In vitro penetration rate (apparent flux), parent compounds” value (from here on “In vitro penetration rate”) is on record?
Its value is 30 μg/cm^2/h.

With `COc1ccc2c(c1)c(CC(=O)O)c(C)n2C(=O)c1ccc(Cl)cc1` [Indomethacin, indomethacin] as the molecule, how does the “In vitro penetration rate” value read?
Its value is 10 μg/cm^2/h.

Which “In vitro penetration rate” value does the source give for `CC(C(=O)O)c1ccc2c(c1)[nH]c1ccc(Cl)cc12` (stereo not drawn) [Carprofen, carprofen] here?
Its value is 40 μg/cm^2/h.

With `Cc1cccc(Nc2ccccc2C(=O)O)c1C` [Mefenamic acid, mefenamic acid] as the molecule, how does the “In vitro penetration rate” value read?
The value was 10 μg/cm^2/h.

For `O=C(O)c1cccnc1Nc1cccc(C(F)(F)F)c1` [Niflumic acid, niflumic acid], which “In vitro penetration rate” value is on record?
The value was 10 μg/cm^2/h.

For `CC(C(=O)O)c1ccc(N2Cc3ccccc3C2=O)cc1` (stereo not drawn) [Indoprofen, indoprofen], which “In vitro penetration rate” value is on record?
Its value is 30 μg/cm^2/h.

Which “In vitro penetration rate” value does the source give for `CC(C(=O)O)c1ccc2oc(-c3ccc(Cl)cc3)nc2c1` (stereo not drawn) [Benoxaprofen, benoxaprofen] here?
The value was 40 μg/cm^2/h.

Which “In vitro penetration rate” value does the source give for `CN1C(C(=O)Nc2ccccn2)=C(O)c2ccccc2S1(=O)=O` [Piroxicam, piroxicam] here?
The value was <1 μg/cm^2/h.

Which “In vitro penetration rate” value does the source give for `O=C(O)C1CCc2cc(C3CCCCC3)c(Cl)cc21` (stereo not drawn) [Clidanac, clidanac] here?
The value was 40 μg/cm^2/h.

For `CC(C)Cc1ccc(C(C)C(=O)O)cc1` (stereo not drawn) [Ibuprofen, 2-(ρ-isobutylphenyl) propionic acid, reference compound], which “In vitro penetration rate” value is on record?
Its value is 50 μg/cm^2/h.

Which “In vitro penetration rate” value does the source give for `Cc1ccc(C(=O)c2ccc(CC(=O)O)n2C)cc1` [Tolmetin, tolmetin] here?
The value was 10 μg/cm^2/h.

Test system: not listed separately
Assay: in vivo
Conditions: rat
Procedure: The acute toxicity of the prodrug compounds and parent compounds are measured by LD50 of rat.

With `CC(C(=O)O)c1ccc2c(c1)Cc1cccnc1O2` (stereo not drawn) [Pranoprofen, pranoprofen] as the molecule, how does the LD50 read?
Its LD50 is 450 mg/kg.

For `COc1ccc2c(c1)c(CC(=O)O)c(C)n2C(=O)c1ccc(Cl)cc1` [Indomethacin, indomethacin], which LD50 is on record?
Its LD50 is 13 mg/kg.

With `CC(C(=O)O)c1ccc2c(c1)[nH]c1ccc(Cl)cc12` (stereo not drawn) [Carprofen, carprofen] as the molecule, how does the LD50 read?
The LD50 was 400 mg/kg.

For `Cc1cccc(Nc2ccccc2C(=O)O)c1C` [Mefenamic acid, mefenamic acid], which LD50 is on record?
Its LD50 is 600 mg/kg.

With `O=C(O)c1cccnc1Nc1cccc(C(F)(F)F)c1` [Niflumic acid, niflumic acid] as the molecule, how does the LD50 read?
The LD50 was 650 mg/kg.

Which LD50 does the source give for `CC(C(=O)O)c1ccc(N2Cc3ccccc3C2=O)cc1` (stereo not drawn) [Indoprofen, indoprofen] here?
Its LD50 is 700 mg/kg.

With `CC(C(=O)O)c1ccc2oc(-c3ccc(Cl)cc3)nc2c1` (stereo not drawn) [Benoxaprofen, benoxaprofen] as the molecule, how does the LD50 read?
The LD50 was 800 mg/kg.

Which LD50 does the source give for `CN1C(C(=O)Nc2ccccn2)=C(O)c2ccccc2S1(=O)=O` [Piroxicam, piroxicam] here?
The LD50 was 360 mg/kg.

Which LD50 does the source give for `O=C(O)C1CCc2cc(C3CCCCC3)c(Cl)cc21` (stereo not drawn) [Clidanac, clidanac] here?
The LD50 was 35 mg/kg.

Which LD50 does the source give for `CC(C)Cc1ccc(C(C)C(=O)O)cc1` (stereo not drawn) [Ibuprofen, 2-(ρ-isobutylphenyl) propionic acid, reference compound] here?
The LD50 was 1500 mg/kg.

With `Cc1ccc(C(=O)c2ccc(CC(=O)O)n2C)cc1` [Tolmetin, tolmetin] as the molecule, how does the LD50 read?
The LD50 was 350 mg/kg.

Test system: not listed separately
Assay: Solubility in water / aqueous solubility of HPPs and parent drugs
Conditions: water

Which solubility does the source give for `CC(C(=O)O)c1ccc2c(c1)Cc1cccnc1O2` (stereo not drawn) [Pranoprofen, pranoprofen] here?
The solubility was 200 µg/mL (≈ 783 µM).

Which solubility does the source give for `COc1ccc2c(c1)c(CC(=O)O)c(C)n2C(=O)c1ccc(Cl)cc1` [Indomethacin, indomethacin] here?
The solubility was 100 µg/mL (≈ 279 µM).

For `CC(C(=O)O)c1ccc2c(c1)[nH]c1ccc(Cl)cc12` (stereo not drawn) [Carprofen, carprofen], which solubility is on record?
Its solubility is 100 µg/mL (≈ 365 µM).

With `Cc1cccc(Nc2ccccc2C(=O)O)c1C` [Mefenamic acid, mefenamic acid] as the molecule, how does the solubility read?
Its solubility is < 100 µg/mL.

Which solubility does the source give for `O=C(O)c1cccnc1Nc1cccc(C(F)(F)F)c1` [Niflumic acid, niflumic acid] here?
The solubility was < 100 µg/mL.

For `CC(C(=O)O)c1ccc(N2Cc3ccccc3C2=O)cc1` (stereo not drawn) [Indoprofen, indoprofen], which solubility is on record?
The solubility was 100 µg/mL (≈ 355 µM).

For `CC(C(=O)O)c1ccc2oc(-c3ccc(Cl)cc3)nc2c1` (stereo not drawn) [Benoxaprofen, benoxaprofen], which solubility is on record?
The solubility was 100 µg/mL (≈ 331 µM).

Which solubility does the source give for `CN1C(C(=O)Nc2ccccn2)=C(O)c2ccccc2S1(=O)=O` [Piroxicam, piroxicam] here?
Its solubility is < 100 µg/mL.

For `O=C(O)C1CCc2cc(C3CCCCC3)c(Cl)cc21` (stereo not drawn) [Clidanac, clidanac], which solubility is on record?
Its solubility is 100 µg/mL (≈ 359 µM).

With `Cc1ccc(C(=O)c2ccc(CC(=O)O)n2C)cc1` [Tolmetin, tolmetin] as the molecule, how does the solubility read?
Its solubility is 200 µg/mL (≈ 777 µM).
